What all share (type): cell-based
One assay addresses T1, KRAS (Homo sapiens, UniProt P01116).
T1 construct: endogenous in cells; host or cells: KE39 (KRAS amplified) cells
Description: KRASamp MSD assay. Conditions: KE39 (KRAS amplified) cells, treated with test compounds for 24 hr, MSD readout of KRAS degradation. Put shortly: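 Degradation DC50 derived by curve fitting, with KRAS levels quantified by MSD electrochemiluminescence (capture/detection antibodies, recombinant WT KRAS standard). Lysates prepared from KE39 cells (KRAS amplified) exposed to test compounds for 24 hr.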

For the next assay, the target named is T2, KRAS G12V (Homo sapiens, UniProt P01116, G12V).
T2 construct: SW620-KRAS (G12V)-HiBit-KI cell (Pharmaron); host or cells: SW620-KRAS (G12V)-HiBit-KI cells (HiBiT knock-in at the endogenous KRAS locus)
Description: KRAS G12V HiBit assay. The note with it: SW620-KRAS (G12V)-HiBit-KI cells, compound treatment for 24 hours. Put shortly:
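Luminescence from lytic Nano-Glo HiBiT detection with LgBiT read KRAS G12V levels after 24 h compound exposure. Dilutions were 10-point, 3-fold, from a 0.3 mM DMSO stock. Degradation activity was normalised to cells given 0.1% DMSO alone.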
In general terms: The HiBiT peptide binds its large partner to form an active luciferase.

The target in the next assay is T3, KRAS G12D (Homo sapiens, UniProt P01116, G12D).
T3 construct: AsPc-1-KRAS (G12D)-HiBit-KI cell (Pharmaron); host or cells: AsPc-1-KRAS (G12D)-HiBit-KI cells (HiBiT knock-in at the endogenous KRAS locus)
Put plainly: KRAS G12D HiBit assay. The note with it: AsPc-1-KRAS (G12D)-HiBit-KI cell, compound treatment for 24 hours; for DC50: absolute DC50. The gist of the method:
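HiBiT luminescence, detected by adding lytic buffer, substrate and LgBiT protein, served as the KRAS G12D read-out. Compounds, serially diluted 3-fold over 10 points from 0.3 mM DMSO stock, were on cells for 24 h; percent inhibition normalized to cells given 0.1% DMSO only.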

Setting [1] is: numeric bounds given in place of class symbols.

Where only a bound is given, the exact number is not on record here.

T1 sequence (P01116 1-188 isoform P01116-2): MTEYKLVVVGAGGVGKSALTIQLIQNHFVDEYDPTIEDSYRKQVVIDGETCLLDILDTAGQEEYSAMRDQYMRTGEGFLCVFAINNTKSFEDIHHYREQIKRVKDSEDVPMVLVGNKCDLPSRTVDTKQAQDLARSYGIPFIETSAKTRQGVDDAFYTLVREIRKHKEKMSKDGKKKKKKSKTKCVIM
T3 sequence (P01116 1-188 isoform P01116-2 G12D): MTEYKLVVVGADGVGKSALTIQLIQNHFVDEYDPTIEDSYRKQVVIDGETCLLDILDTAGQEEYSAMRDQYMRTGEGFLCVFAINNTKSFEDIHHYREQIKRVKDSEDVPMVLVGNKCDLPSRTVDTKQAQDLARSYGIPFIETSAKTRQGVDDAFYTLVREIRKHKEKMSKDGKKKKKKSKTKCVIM
T2 sequence (P01116 1-188 isoform P01116-2 G12V): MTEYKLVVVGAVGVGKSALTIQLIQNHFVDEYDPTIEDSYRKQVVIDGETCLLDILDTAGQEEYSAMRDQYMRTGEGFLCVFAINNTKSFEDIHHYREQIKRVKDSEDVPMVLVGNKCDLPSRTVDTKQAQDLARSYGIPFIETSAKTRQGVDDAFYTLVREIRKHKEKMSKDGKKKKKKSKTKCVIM

As for `CCc1c(F)ccc2cc(O)cc(-c3ncc4c(N5CCC[C@H](CO)C5)nc(OC[C@@]56CCCN5[C@H](COC(=O)N5CCC(CN7CCC(c8ccc9c(c8)n(C)c(=O)n9C8CCC(=O)NC8=O)CC7)CC5)CC6)nc4c3F)c12` (stereo partly drawn) [Compound 339, ((3S,7aS)-7a-(((7-(8-ethyl-7-fluoro-3-hydroxynaphthalen-1-yl)-8-fluoro-4-((S)-3-(hydroxymethyl)piperidin-1-yl)pyrido[4,3-d]pyrimidin-2-yl)oxy)methyl)hexahydro-1H-pyrrolizin-3-yl)methyl 4-((4-(1-(2,6-dioxopiperidin-3-yl)-3-methyl-2-oxo-2,3-dihydro-1H-benzo[d]imidazol-5-yl)piperidin-1-yl)methyl)piperidine-1-carboxylate], the DC50 was 1 to 10 nM at KRAS, more than 100 nM on KRAS G12V (class symbols) and more than 100 nM on KRAS G12D (setting [1]).

As to `CCc1c(F)ccc2cc(O)cc(-c3ncc4c(N5CCCOCC5)nc(OC[C@@]56CCCN5[C@H](COC(=O)N5CCC(CN7CCC(c8ccc9c(c8)n(C)c(=O)n9C8CCC(=O)NC8=O)CC7)CC5)CC6)nc4c3F)c12` (stereo partly drawn) [Compound 422, ((3S,7aS)-7a-(((7-(8-ethyl-7-fluoro-3-hydroxynaphthalen-1-yl)-8-fluoro-4-(1,4-oxazepan-4-yl)pyrido[4,3-d]pyrimidin-2-yl)oxy)methyl)hexahydro-1H-pyrrolizin-3-yl)methyl 4-((4-(1-(2,6-dioxopiperidin-3-yl)-3-methyl-2-oxo-2,3-dihydro-1H-benzo[d]imidazol-5-yl)piperidin-1-yl)methyl)piperidine-1-carboxylate], the figures for the DC50 on KRAS, at KRAS G12V (class symbols) and on KRAS G12D (class symbols) were less than 1 nM, less than 10 nM and less than 100 nM, respectively.

Consider `C#Cc1c(F)ccc2cc(O)cc(-c3ncc4c(N5CCC[C@@](C)(O)C5)nc(OC[C@@]56CCCN5[C@H](COC(=O)N5CCC7(CCC7CN7CCC(c8ccc9c(c8)n(C)c(=O)n9C8CCC(=O)NC8=O)CC7)CC5)CC6)nc4c3F)c12` (stereo partly drawn) [Compound 327, ((3S,7aS)-7a-(((7-(8-ethynyl-7-fluoro-3-hydroxynaphthalen-1-yl)-8-fluoro-4-((R)-3-hydroxy-3-methylpiperidin-1-yl)pyrido[4,3-d]pyrimidin-2-yl)oxy)methyl)hexahydro-1H-pyrrolizin-3-yl)methyl 1-((4-(1-(2,6-dioxopiperidin-3-yl)-3-methyl-2-oxo-2,3-dihydro-1H-benzo[d]imidazol-5-yl)piperidin-1-yl)methyl)-7-azaspiro[3.5]nonane-7-carboxylate], for which the values for the DC50 at KRAS, on KRAS G12V (class symbols) and at KRAS G12D (class symbols) were not below 10 nM, more than 100 nM and less than 100 nM, respectively.

As to `CCc1c(F)ccc2cc(O)cc(-c3ncc4c(N5CCC[C@@](C)(O)C5)nc(OC[C@]56CCCN5[C@H](COC(=O)N5CCC(CN7CCC(c8ccc9c(c8)n(C)c(=O)n9C8CCC(=O)NC8=O)CC7)CC5)CC6)nc4c3F)c12` (stereo partly drawn) [Compound 390, ((3S,7aR)-7a-(((7-(8-ethyl-7-fluoro-3-hydroxynaphthalen-1-yl)-8-fluoro-4-((R)-3-hydroxy-3-methylpiperidin-1-yl)pyrido[4,3-d]pyrimidin-2-yl)oxy)methyl)hexahydro-1H-pyrrolizin-3-yl)methyl 4-((4-(1-(2,6-dioxopiperidin-3-yl)-3-methyl-2-oxo-2,3-dihydro-1H-benzo[d]imidazol-5-yl)piperidin-1-yl)methyl)piperidine-1-carboxylate], the DC50 was 1 to 10 nM on KRAS, less than 10 nM on KRAS G12V (class symbols) and less than 100 nM at KRAS G12D (class symbols).

In the case of `CCc1c(F)ccc2cc(O)cc(-c3ncc4c(N5CCC[C@@](C)(O)C5)nc(OC[C@@]56CCCN5[C@H](COC(=O)N5CCC7(CC5)CC(N5CC(c8ccc9c(c8)n(C)c(=O)n9C8CCC(=O)NC8=O)C5)C7)CC6)nc4c3F)c12` (stereo partly drawn) [Compound 464, ((3S,7aS)-7a-(((7-(8-ethyl-7-fluoro-3-hydroxynaphthalen-1-yl)-8-fluoro-4-((R)-3-hydroxy-3-methylpiperidin-1-yl)pyrido[4,3-d]pyrimidin-2-yl)oxy)methyl)hexahydro-1H-pyrrolizin-3-yl)methyl 2-(3-(1-(2,6-dioxopiperidin-3-yl)-3-methyl-2-oxo-2,3-dihydro-1H-benzo[d]imidazol-5-yl)azetidin-1-yl)-7-azaspiro[3.5]nonane-7-carboxylate], the DC50 is 1 to 10 nM on KRAS, less than 10 nM at KRAS G12V (class symbols) and less than 100 nM at KRAS G12D (class symbols).

As for `CCc1c(F)ccc2cc(O)cc(-c3ncc4c(N5CCC[C@@](C)(O)C5)nc(OC[C@@]56CCCN5[C@H](COC(=O)N5CCC(OCCCc7cccc8c7n(C)c(=O)n8C7CCC(=O)NC7=O)CC5)CC6)nc4c3F)c12` (stereo partly drawn) [Compound 2, [(3S,8S)-8-[[7-(8-Ethyl-7-fluoro-3-hydroxy-1-naphthyl)-8-fluoro-4-[(3R)-3-hydroxy-3-methyl-1-piperidyl]pyrido[4,3-d]pyrimidin-2-yl]oxymethyl]-1,2,3,5,6,7-hexahydropyrrolizin-3-yl]methyl4-[3-[1-(2,6-dioxo-3-piperidyl)-3-methyl-2-oxo-benzimidazol-4-yl]propoxy]piperidine-1-carboxylate], the figures for the DC50 on KRAS, on KRAS G12V (class symbols) and on KRAS G12D (class symbols) were less than 1 nM, less than 10 nM and less than 100 nM, respectively. This compound showed a Dmax at KRAS G12D (class symbols) of more than 50%.

For the compound `CCc1c(F)ccc2cc(O)cc(-c3ncc4c(N5CCCC(F)(F)C5)nc(OC[C@@]56CCCN5[C@H](COC(=O)N5CC7(CC(N8CCC(c9ccc%10c(c9)n(C)c(=O)n%10C9CCC(=O)NC9=O)CC8)C7)C5)CC6)nc4c3F)c12` (stereo partly drawn) [Compound 469, ((3S,7aS)-7a-(((4-(3,3-difluoropiperidin-1-yl)-7-(8-ethyl-7-fluoro-3-hydroxynaphthalen-1-yl)-8-fluoropyrido[4,3-d]pyrimidin-2-yl)oxy)methyl)hexahydro-1H-pyrrolizin-3-yl)methyl 6-(4-(1-(2,6-dioxopiperidin-3-yl)-3-methyl-2-oxo-2,3-dihydro-1H-benzo[d]imidazol-5-yl)piperidin-1-yl)-2-azaspiro[3.3]heptane-2-carboxylate], the results for the DC50 on KRAS, on KRAS G12V (class symbols) and on KRAS G12D (class symbols) were less than 1 nM, less than 10 nM and less than 100 nM, respectively.

Take `CCc1c(F)ccc2cc(O)cc(-c3ncc4c(N5CCC[C@@](C)(O)C5)nc(OC[C@@]56CCCN5[C@H](COC(=O)N5CCC(C7(N8CCC(c9ccc%10c(c9)n(C)c(=O)n%10C9CCC(=O)NC9=O)CC8)CC7)CC5)CC6)nc4c3F)c12` (stereo partly drawn) [Compound 399, ((3S,7aS)-7a-(((7-(8-Ethyl-7-fluoro-3-hydroxynaphthalen-1-yl)-8-fluoro-4-((R)-3-hydroxy-3-methylpiperidin-1-yl)pyrido[4,3-d]pyrimidin-2-yl)oxy)methyl)hexahydro-1H-pyrrolizin-3-yl)methyl 4-(1-(4-(1-(2,6-dioxopiperidin-3-yl)-3-methyl-2-oxo-2,3-dihydro-1H-benzo[d]imidazol-5-yl)piperidin-1-yl)cyclopropyl) piperidine-1-carboxylate]: the results for the DC50 at KRAS, on KRAS G12V (class symbols) and at KRAS G12D (class symbols) were less than 1 nM, less than 10 nM and less than 100 nM, respectively.

Take `CCc1c(F)ccc2cc(O)cc(-c3ncc4c(N5CCC[C@@](C)(O)C5)nc(OC[C@@]56CCCN5[C@H](COC(=O)N5CC(CN7CCC(c8ccc9c(c8)n(C)c(=O)n9C8CCC(=O)NC8=O)CC7)C5)CC6)nc4c3F)c12` (stereo partly drawn) [Compound 394, ((3S,7aS)-7a-(((7-(8-ethyl-7-fluoro-3-hydroxynaphthalen-1-yl)-8-fluoro-4-((R)-3-hydroxy-3-methylpiperidin-1-yl)pyrido[4,3-d]pyrimidin-2-yl)oxy)methyl)hexahydro-1H-pyrrolizin-3-yl)methyl 3-((4-(1-(2,6-dioxopiperidin-3-yl)-3-methyl-2-oxo-2,3-dihydro-1H-benzo[d]imidazol-5-yl)piperidin-1-yl)methyl)azetidine-1-carboxylate]: the figures for the DC50 at KRAS, at KRAS G12V (class symbols) and on KRAS G12D (setting [1]) were 1 to 10 nM, less than 10 nM and more than 100 nM, respectively.

Consider `C#Cc1c(F)ccc2cccc(-c3ncc4c(N5CCC[C@@](C)(O)C5)nc(OC[C@@]56CCCN5[C@H](COC(=O)N5CCC(CN7CCC(c8cccc9c8n(C)c(=O)n9C8CCC(=O)NC8=O)CC7)CC5)CC6)nc4c3F)c12` (stereo partly shown) [Compound 137], for which the DC50 is 1 to 10 nM on KRAS, more than 75.7 nM at KRAS G12V (numeric bounds) and 100 to 300 nM on KRAS G12D (class symbols).

For the origin of these results see patent publication US12599672B2, “KRAS proteolysis targeting chimeras” (PAQ Therapeutics Inc., priority 2023, dated 2026).
